≈ marks a conversion by molar mass, not a printed value. Read-outs that look alike come from different tables or passages of the source.
What was measured:
SRB assay, cytotoxicity [1] = assay type: cell-based, mouse; settings: mouse, 3T3-L1 cells; 3T3-L1, SRB, 24 h exposure, three independent repeats; read-out: Cytotoxicity (IC50 ± SD)
Procedure: (§1) The HT-29 cells (ATCC, Manassas, VA, USA) were cultured within α-MEM (IIET PAS, Wrocław, Poland) supplemented with 10% fetal bovine serum (Sigma, St. Louis, MO, USA), antimycotic (100 μg/mL penicillin, 100 μg/mL streptomycin and 0.25 μg/mL amphotericin) (Sigma) and 2 mM glutamine (Sigma). The 3T3-L1 cells (ATCC, Manassas, VA, USA) were cultivated using DMEM high-glucose medium (IIET PAS, Wrocław, Poland) supplemented as above. Both cell lines were cultured at 37 °C in an atmosphere of 5% CO2.
(§2) The sulforhodamine B (SRB) assay was performed according to a previously published protocol. Briefly, 1 × 10^4 HT-29 or 5 × 10^3 3T3-L1 cells were seeded into 96-well plates. After attaching to the plate surface, the cells were incubated with 100, 75, 50, 25, 10 or 1 µg/mL of the investigated compounds for 24 h. After this time, proteins were precipitated with trichloroacetic acid and stained with SRB. The absorbance was measured at 560 nm using a GloMax Discover Microplate Reader (Promega, Madison, WI, USA).

[2] = test system: Staphylococcus aureus ATCC 25923; experiment: MBC assay; assay type: cell-based; settings: Staphylococcus aureus, ATCC25923; S. aureus ATCC 25923; read-out: MBC
Procedure: (§3) The minimum bactericidal concentration (MBC) was tested for all naringenin derivatives. First, 10 µL of medium was taken from the plate, on which the MIC was determined for the MIC value, the value below and the two values above. This volume was transferred to TSA or MC agar. After 18–24 h (depending on strain) incubation at 37 °C, colonies were counted. The concentration of test compounds at which no bacterial growth was observed was defined as the MBC value. Each experiment was repeated 3 times.

[3] = test system: Enterococcus faecalis ATCC 29212; experiment: MBC assay; assay type: cell-based; settings: Enterococcus faecalis, ATCC29212; E. faecalis ATCC 29212; read-out: MBC
Procedure: as §3

Escherichia coli K12 [4] = experiment: MBC assay; assay type: cell-based; settings: Escherichia coli; E. coli K12; read-out: MBC
Procedure: as §3

HT-29 cells [5] = experiment: MTT assay, cell viability; assay type: cell-based, human; settings: HT-29, highest concentration 100 µg/mL, 24 h
Procedure: as §1
First, 1 × 10^4 HT-29 cells or 5 × 10^3 3T3-L1 cells were seeded into a 96-well plate and incubated for one night. Then, cells were treated with different concentrations of the investigated compounds within 24 h. Afterwards, the medium was replaced with a fresh medium containing 0.5 mg/mL of 3-(4,5-dimethylthiazol-2-yl)-2,5-diphenyl-2H-tetrazolium bromide (MTT, Sigma) and incubated for 2 h at 37 °C. After removing the medium, the formazan salts were dissolved in dimethyl sulfoxide (DMSO, Sigma), and the absorbance of the solution was measured at 560 nm using a plate reader.

[6] = test system: Staphylococcus aureus ATCC 25923; experiment: MIC, microdilution method; assay type: cell-based; settings: S. aureus ATCC 25923, MHB, 18 h, 37 °C, tested 512 to 1 µg/mL
Procedure: (§4) Non-pathogenic reference strains representing the intestinal microbiome were used for the studies: Escherichia coli K12, Staphylococcus aureus ATCC 25923 and Enterococcus faecalis ATCC 29212. All strains were obtained from the collection of the Department of Microbiology at the Medical University of Wrocław.
(§5) The strains were received from the museum (−80 °C) and grown in tryptic soy broth (TSB, OXOID, Basingstoke, UK) under continuous shaking conditions (MaxQTM6000 incubator shaker, Thermo Scientific, Waltham, MA, USA) at 125 rpm at 37 °C. Then, they were moved to the growth media, namely tryptic soy agar (TSA, OXOID, Basingstoke, UK) and MacConkey agar (MC, Millipore, Darmstadt, Germany) for S. aureus or E. faecalis and E. coli, respectively.
(§6) A fresh 18–24 h culture was used for each study. For this purpose, a culture with a density of 1.5 × 10^8 CFU/mL in Mueller–Hinton broth (MHB, OXOID, Basingstoke, UK) was prepared and used for further microdilution studies.
(§7) The antimicrobial activity of the O-alkyl derivatives of naringenin and their oximes was tested in vitro using the microdilution method, showing the minimum inhibitory concentration (MIC), in accordance with the recommendations of the European Antimicrobial Susceptibility Testing Committee EUCAST [44]. MICs were determined in 96-well microdilution plates. The tests were carried out in MHB medium. The O-alkyl derivatives of naringenin and their oximes were tested in the concentration range of 512 to 1 µg/mL in a geometric process in MHB medium. The final concentration of the test strains in each test well was 5 × 10^5 CFU/mL. MICs were read after 18 h (for E. coli and S. aureus) and 24 h (for E. faecalis) incubation at 37 °C.
(§8) A strain growth control (tested strain in medium), background control for tested compounds (naringenin derivatives in MHB), medium control (only pure MHB) and compound solvent control (DMSO at test compound concentration, strain and MHB) were set for each experiment. Each test was set up with three independent experiments, each as three separate replicates.
(§9) The […], OD600, was measured in a plate reader (ASYS UVM340, BIOCHROM Ltd., Cambridge, UK). The background control of the tested compounds and the clean medium were included in the absorbance results.

[7] = test system: Enterococcus faecalis ATCC 29212; experiment: MIC, microdilution method; assay type: cell-based; settings: E. faecalis ATCC 29212, MHB, 24 h, 37 °C, tested 512 to 1 µg/mL
Procedure: as §4, §5, §6, §7, §8, §9

Escherichia coli K12 [8] = experiment: MIC, microdilution method; assay type: cell-based; settings: Escherichia coli; E. coli K12; MHB, 18 h, 37 °C; tested 512 to 1 µg/mL; read-out: MIC
Procedure: as §4, §5, §6, §7, §8, §9

SRB assay, cytotoxicity [9] = assay type: cell-based, human; settings: human, HT-29 cells; HT-29, SRB, 24 h exposure, three independent repeats; read-out: Cytotoxicity (IC50 ± SD)
Procedure: as §1, §2

HT-29 cells [10] = experiment: SRB assay, cytotoxicity; assay type: cell-based, human; settings: HT-29, SRB, up to 100 µg/mL
Procedure: as §1, §2

[11] = Staphylococcus aureus, ATCC25923, read-out: MIC
[12] = Enterococcus faecalis, ATCC29212, read-out: MIC

| Compound | IC50 at 24 h (SRB assay, cytotoxicity [1]) [µg/mL] | MBC [2] [µg/mL] | MBC [3] [µg/mL] | MBC (Escherichia coli K12 [4]) [µg/mL] | melting point [°C] | effect on colon adenocarcinoma cells (viability, MTT) (HT-29 cells [5]) | MIC [6] | MIC [6, 11] [µg/mL] | MIC [7, 12] [µg/mL] | MIC (Escherichia coli K12 [8]) [µg/mL] | IC50 at 24 h (SRB assay, cytotoxicity [9]) [µg/mL] | effect on the proliferation of the HT-29 cell line (HT-29 cells [10]) | MIC [7] |
| --- | --- | --- | --- | --- | --- | --- | --- | --- | --- | --- | --- | --- | --- |
| CCCCCCCOc1ccc([C@@H]2CC(=O)c3c(O)cc(OCCCCCCC)cc3O2)cc1 [A4, 7,4′-Di-O-heptylnaringenin] | > 100 | > 512 | > 512 | > 512 | 74 to 75 | weak | >512 (>512) µg/mL | > 512 | 32 (≈ 68.3 µM) | > 512 | > 100 | no effect on the proliferation |  |
| CCCCCCCCOc1ccc([C@@H]2CC(=O)c3c(O)cc(OCCCCCCCC)cc3O2)cc1 [A6, 7,4′-Di-O-octylnaringenin] | > 100 | > 512 | > 512 | > 512 | 60 to 61 | weak | >512 (>512) µg/mL | > 512 | 32 (≈ 64.4 µM) | > 512 | > 100 | no effect on the proliferation |  |
| CCCCCCCCCOc1ccc([C@@H]2CC(=O)c3c(O)cc(OCCCCCCCCC)cc3O2)cc1 [A8, 7,4′-Di-O-nonylnaringenin] | > 100 | > 512 | > 512 | > 512 | 70 to 71 | weak | 512 (>512) µg/mL | 512 (≈ 976 µM) | 512 (≈ 976 µM) | > 512 | > 100 | no effect on the proliferation | 512 (>512) µg/mL |
| CCCCCCCCCCCOc1ccc([C@@H]2CC(=O)c3c(O)cc(OCCCCCCCCCCC)cc3O2)cc1 [A10, 7,4′-Di-O-undecylnaringenin] | > 100 | > 512 | > 512 | > 512 | 63 to 64 | weak |  | 256 (≈ 441 µM) | 32 (≈ 55.1 µM) | > 512 | > 100 | no effect on the proliferation |  |
| CCCCCCCCCOc1ccc([C@@H]2CC(=NO)c3c(O)cc(OCCCCCCCCC)cc3O2)cc1 [B8, 7,4′-Di-O-nonylnaringenin oxime] | > 100 | > 512 | > 512 | > 512 | 87 to 88 |  |  | > 512 | > 512 | > 512 | > 100 | no effect on the proliferation | >512 (>512) µg/mL |
| CCCCCCCCCCCOc1ccc([C@@H]2CC(=NO)c3c(O)cc(OCCCCCCCCCCC)cc3O2)cc1 [B10, 7,4′-Di-O-undecylnaringenin oxime] | > 100 | > 512 | > 512 | > 512 | 95 to 96 |  |  | > 512 | > 512 | > 512 | > 100 | no effect on the proliferation | >512 (>512) µg/mL |

Source: article PMC10298275, “Antiproliferative Activity and Impact on Human Gut Microbiota of New O-Alkyl Derivatives of Naringenin and Their Oximes” (International Journal of Molecular Sciences, 2023)
